The source of these data is patent publication US5709901A (priority 1994, dated 1998).

Entries after “also recorded” stand apart in the source; their conditions may differ. Square brackets hold non-standard residues; d marks the D form. Peptide text beside a SMILES is read from it. * marks the point of attachment. Sta = CC(C)C[C@H](N)[C@@H](O)CC(=O)O; Isovaleryl = CC(C)CC(=O)*

One assay relates to PF-2. The assay is classed as biochemical, Bacillus sp. KSM-PF2. The settings on record: for residual activity of PF-2 relative to control as 100: pH 7.
The subject of the next assay is PF-1. The assay is classed as biochemical, Bacillus sp. KSM-PF1. The settings on record: for residual activity of PF-1 relative to control as 100: pH 7.
Assay [1] is described as follows: Meat tenderization test, 5-mm thick round (Example 3, FIG. 1). The settings on record: for tenderizing effect (in words) / time in which the tenderizing effect is exerted: 5-mm thick meat, 20° C., per 10 g: PF-1 100 U, papain 10 U or 1 U, elastase 250 U; for tenderizing effect (in words): PF-2 45 U; for time to overtenderizing effect: 5 mm or 15 mm. On the procedure:
The metalloprotease of the present invention preferably tenderizes round in such a manner that the shear force value of the round thus tenderized is from 20% to 70% (preferably from 25% to 65%, particularly from 30% to 50% of that of the untenderized round (round which has not been processed with the metalloprotease of the present invention) when the round has a thickness of 5 mm. The shear force value as defined herein is determined by subjecting the meat sample to cutting by a meat shear (Warner Bratzler Type 3000, available from Warner Bratzler Corp.). The meat sample is obtained by subjecting round to enzymatic processing at a temperature of 20° C., and then grilled-the round thus processed on both sides thereof at 200° C. (grilled on one side for 1 minute and one the other side for 45 seconds).
As the meat to be tested there was used a low grade round (100 g) imported from Australia. The meat was sliced to 5-mm thick pieces by a meat slicer. Prominent strings were removed. About 20 g of the sliced meat was then molded. The molded meat was uniformly sprinkled with the enzyme powder, covered with a wrap, and then allowed to stand at room temperature (20° C.) for a predetermined period of time. The meat thus processed was then grilled over a 200° C. hot plate for 1 minute on one side and for 45 seconds on the other side. The meat thus grilled was then cut into 3-cm wide strips. The strips were then measured for shear force value (SFV) by means of a meat shear (Warner Bratzler Type 3000, available from Warner Bratzler Corp.). As comparative enzymes, a papain powder (available from Amano Co., Ltd.) and an elastase powder (reagent available from Sigma Co., Ltd.) were subjected to the same meat tenderization test as mentioned above.

A short description of assay [2]: Meat tenderization test, 15-mm thick round (Example 4, FIG. 2). The conditions noted are these: 15-mm thick meat, 20° C., per 10 g: PF-1 100 U, papain 10 U or 1 U, elastase 250 U; for tenderizing effect (in words): PF-2 45 U. As to the method: The same meat as used in Example 3 was sliced perpendicular to muscular fibers to 15-mm thick pieces by a meat slicer. A maximum homogeneous portion of the sliced meat was molded into an about 30 g rod. The molded meat was uniformly sprinkled with the enzyme powder, covered with a wrap, and then allowed to stand at room temperature (20° C.) for a predetermined period of time. The meat thus processed was then grilled over a 200° C. hot plate for 3 minutes on each side. The meat thus grilled was cut into 2-cm wide strips which were then measured for shear force value in the same manner as in Example 3. As comparative enzymes, the same papain powder (available from Amano Co., Ltd.) and elastase powder (reagent available from Sigma Co., Ltd.) as used in Example 3 were subjected to the same meat tenderization test as mentioned above.

The nature of assay [3]: Meat tenderization test of conventional proteases (background). The conditions noted are these: for time to overtenderize the meat: 0.1 based on the weight of the meat. An excerpt:
As a meat tenderizer there has been heretofore used a protease. One of the most frequently used meat tenderizers is papain derived from papaya. However, papain is disadvantageous in that it is hard to control in tenderization (i.e., control over the progress of tenderization to a proper level) and its use is restricted by the added amount thereof and the processing time. In fact, papain was subjected to meat tenderization test. As a result, even when used in an amount as extremely small as 0.1 based on the weight of the meat to be tested, this enzyme overtenderized the meat within 1 hour at room temperature and in a period of time as short as 24 hours at a temperature as low as 4° C. The meat thus overtenderized was too unsavory to be served. This is because proteases derived from plants have a low substrate specificity.
On the other hand, a method has been proposed which comprises the specific decomposition of a connective tissue in a meat with elastase, which has a high substrate specificity, to tenderize the meat (JP-A-4-197156 (The term "JP-A" as used herein means an "unexamined published Japanese patent application"), JP-A-5-276899). However, this approach is disadvantageous in that elastase is hard to produce and must be used in a relatively large amount and requires a prolonged processing time to exert desired effects as compared with the foregoing proteases. It has also been point out that elastase cannot tenderize a meat sufficiently even if the added amount thereof and the processing time are increased (JP-A-6-169729).

Consider `O[C@H](CS)[C@H](O)CS` (racemic) [DTT, dithiothreitol], for which, in the assay on PF-2, the “inhibition of PF-2 activity (in words)” value is “not inhibited” and the “residual activity of PF-2 relative to control as 100” value worked out at 81%. Moreover, in the assay with PF-1, the “inhibition of PF-1 activity (in words)” value is reported as “not inhibited” and the “residual activity of PF-1 relative to control as 100” value worked out at 70%.
For `[Ca+2].[Cl-].[Cl-]` [CaCl2], the “residual activity of PF-2 relative to control as 100” value in the assay with PF-2 amounted to 76%. The “residual activity of PF-1 relative to control as 100” value with PF-1 came out at 104%.
For `[Cl-].[Cl-].[Co+2]` [CoCl2], the “residual activity of PF-2 relative to control as 100” value in the assay with PF-2 is 78%. For the same molecule, the “residual activity of PF-1 relative to control as 100” value in the assay on PF-1 was found to be 103%.
With `[Cl][Cu][Cl]` [CuCl2], in the assay on PF-2, the “residual activity of PF-2 relative to control as 100” value is 20%. In addition, the “residual activity of PF-1 relative to control as 100” value in the assay with PF-1 is 37%.
As to `O=C(O)CN(CCN(CC(=O)O)CC(=O)O)CC(=O)O` [EDTA, ethylenediaminetetraacetic acid], in the assay on PF-2, the “inhibition of PF-2 activity (in words)” value is reported as “inhibited” and the “residual activity of PF-2 relative to control as 100” value was found to be 30%. In addition, in the assay with PF-1, the “inhibition of PF-1 activity (in words)” value is listed as “inhibited” and the “residual activity of PF-1 relative to control as 100” value was determined as 45%.
`[Cl][Fe][Cl]` [FeCl2]: the “residual activity of PF-2 relative to control as 100” value with PF-2 worked out at 28%.
For `[Cl][Fe]([Cl])[Cl]` [FeCl3], the “residual activity of PF-2 relative to control as 100” value in the assay on PF-2 is on record as 9%. Also, the “residual activity of PF-1 relative to control as 100” value in the assay on PF-1 came out at 98%.
`[Cl][Hg][Cl]` [HgCl2]: in the assay with PF-2, the “residual activity of PF-2 relative to control as 100” value came to 62%. Moreover, the “residual activity of PF-1 relative to control as 100” value with PF-1 was 40%.
The matching figures for `[Cl-].[Cl-].[Mg+2]` [MgCl2]: 74% and 107%.
The matching figures for `[Cl][Mn][Cl]` [MnCl2]: 62% and 103%.
For `O=C(O)CI` [Monoiodoacetic acid, monoiodoacetic acid], in the assay with PF-2, the “inhibition of PF-2 activity (in words)” value is given as “not inhibited” and the “residual activity of PF-2 relative to control as 100” value was found to be 100%. Also, in the assay with PF-1, the “inhibition of PF-1 activity (in words)” value is given as “not inhibited” and the “residual activity of PF-1 relative to control as 100” value was 105%.
On to `[Cl][Ni][Cl]` [NiCl2], for which, in the assay on PF-2, the “residual activity of PF-2 relative to control as 100” value was determined as 28%. Further, the “residual activity of PF-1 relative to control as 100” value in the assay with PF-1 is recorded as 92%.
Consider `O=S(=O)(F)Cc1ccccc1` [PNSF, phenylmethanesulfonylfluoride], for which, in the assay on PF-2, the “inhibition of PF-2 activity (in words)” value is “not inhibited” and the “residual activity of PF-2 relative to control as 100” value is listed as 80%. For the same molecule, in the assay on PF-1, the “inhibition of PF-1 activity (in words)” value was “not inhibited” and the “residual activity of PF-1 relative to control as 100” value was determined as 124%.
Consider `CC(C)CC(=O)N[C@H](C(=O)N[C@H](C(=O)N[C@@H](CC(C)C)[C@@H](O)CC(=O)N[C@@H](C)C(=O)N[C@@H](CC(C)C)[C@@H](O)CC(=O)O)C(C)C)C(C)C` [Pepstatin, pepstatin] (Isovaleryl-VV[Sta]A[Sta]-OH), for which, in the assay on PF-2, the “inhibition of PF-2 activity (in words)” value was “not inhibited” and the “residual activity of PF-2 relative to control as 100” value worked out at 100%. Besides, in the assay with PF-1, the “inhibition of PF-1 activity (in words)” value was “not inhibited” and the “residual activity of PF-1 relative to control as 100” value is on record as 108%.
Regarding `[Cl-].[Cl-].[Zn+2]` [ZnCl2], the “residual activity of PF-2 relative to control as 100” value in the assay on PF-2 is 58%. For the same molecule, in the assay on PF-1, the “residual activity of PF-1 relative to control as 100” value came out at 88%.
elastase: the figures for the “tenderizing effect (in words)” value in assay [1] (listed as elastase powder), in assay [2] (listed as elastase powder) and in assay [3] (reagent grade elastase) were “some tenderizing effect; also recorded: a proper tenderness cannot be obtained”, “some tenderizing effect; also recorded: a proper tenderness cannot be obtained” and “slightly tenderized; also recorded: the tenderness thus obtained was insufficient”, respectively. The “time in which the tenderizing effect is exerted” value in assay [1] and in assay [2] was 24 h throughout. Moreover, the “tenderizing effect, summary of Examples 3 and 4 (in words)” value in assay [1] (meat thickness either 5 mm or 15 mm, up to 24 hours) was “cannot exert an effect of properly tenderizing the meat”.
In the case of leupeptine [Leupepsin], in the assay with PF-2, the “inhibition of PF-2 activity (in words)” value is on record as “not inhibited” and the “residual activity of PF-2 relative to control as 100” value was determined as 91%. For the same molecule, in the assay on PF-1, the “inhibition of PF-1 activity (in words)” value is on record as “not inhibited” and the “residual activity of PF-1 relative to control as 100” value is 82%.

B1: papain (protein, UniProt P00784 134-345, looked up)
Papain: IPEYVDWRQKGAVTPVKNQGSCGSCWAFSAVVTIEGIIKIRTGNLNEYSEQELLDCDRRSYGCNGGYPWSALQLVAQYGIHYRNTYPYEGVQRYCRSREKGPYAAKTDGVRQVQPYNEGALLYSIANQPVSVVLEAAGKDFQLYRGGIFVGPCGNKVDHAVAAVGYGPNYILIKNSWGTGWGENGYIRIKRGTGNSYGVCGLYTSSFYPVKN
With B1, the “tenderizing effect (in words)” value in assay [1] and in assay [2] was “overtenderizing effect” in each case. For the same molecule, the “time in which the tenderizing effect is exerted” value in assay [1] and in assay [2] was “several” throughout. Further, the “time to overtenderizing effect” value was “several minutes to scores of minutes” in assay [1] (used in a large amount) and “several hours” in assay [1] (used in a reduced amount). The “time to overtenderize the meat” value is 24 h in assay [3] (4° C.) and at most 1 h in assay [3] (room temperature).
